Measurements: EP0293294A2, “Imidazo[1,2-a]pyrimidines and their salts, process and intermediates for their preparation, their use as medicaments and compositions containing them” (ROUSSEL-UCLAF, priority 1987, dated 1988)

These molecules were tested against récepteurs des benzodiazépines (assay: Benzodiazepine receptor binding, [³H] flunitrazépam displacement (modified Squires and Braestrup method)). Settings: concentration inhibiting by 50% the specific binding of 0,6 nanomoles of [³H] flunitrazépam; rat forebrain membrane preparations; read-out: Liaison aux récepteurs CI50.
Set-up: species or system rats
Excerpt: L'affinité des composés pour les récepteurs des benzodiazépines a été évaluée en utilisant un radioligang [³H] flunitrazépam et la méthode de Squires et Braestrup (Nature, 1977, 266, 732) modifiée.
Les valeurs indiquées dans le tableau II ci-après sont les concentrations nanomolaires du produit testé qui inhibent dans une proportion de 50% la liaison spécifique de 0,6 nanomoles de [³H] flunitrazépam dans des préparations de membranes de cerveaux antérieurs de rats [(CI₅₀)en nanomoles].

In order of falling IC50:
1. COc1nc2nc(C(=O)C3(C)CC3)cn2c2c1CCCC2 [Exemple 4, (6,7,8,9-tétrahydro 5-méthoxyimidazo [1,2-a]quinazolin-2-yl) 1-méthyl cyclopropyl méthanone]  6.3 µM
2. CCc1c(OC)nc2nc(C(=O)[C@@H]3C[C@H]3C)cn2c1C (relative stereo) [Exemple 5, trans (6-éthyl 7-méthoxy 5-méthylimidazo [1,2-a]pyrimidin-2-yl) 2-méthyl cyclopropyl méthanone]  1.78 µM
3. COc1nc2nc(C(=O)[C@@H]3C[C@H]3C#N)cn2c2c1CCCC2 (relative stereo) [Exemple 11, trans 2-(6,7,8,9-tétrahydro 5-méthoxyimidazo [1,2-a]quinazolin-2-oyl) cyclopropane carbonitrile]  1 µM
4. CCOC(=O)[C@@H]1C[C@H]1C(=O)c1cn2c(C)c(CC)c(OC)nc2n1 (relative stereo) [Exemple 1, trans 2-(6-éthyl 7-méthoxy 5-méthylimidazo [1,2-a]pyrimidin-2-oyl) cyclopropane carboxylate d'éthyle]  0.56 µM
5. COc1nc2nc(C(=O)[C@@H]3C[C@H]3Cl)cn2c2c1CCCC2 (relative stereo) [Exemple 6, trans (6,7,8,9-tétrahydro 5-méthoxyimidazo [1,2 a]quinazolin--yl) 2-chlorocyclopropyl méthanone]  0.18 µM
